# From patent US20070149469A1, “Medical use of tbk-1 or of inhibitors thereof” (priority 2003, published 2007)
# Legend:
# [1] = system: normal human dermal fibroblasts (NHDF); assay: NHDF proliferation after transfer of supernatants from transfected HEK 293 cells, Alamar Blue; type: cell-based; settings: 25 μl HEK 293 supernatant, 4 days, versus empty vector
# Experimental: In order to investigate the cell type specificity of TBK-1, supernatants from transfected HEK 293 cells were also added to normal human dermal fibroblasts (NHDF). NHDF were seeded at 1,000 cells per well on 96-well tissue culture plates two days prior to the transfer in 100 μl complete Fibroblast Growth Medium (Promocell, Heidelberg). 24 h prior to the transfer the medium was changed to 100 μl Fibroblast Basal Medium (Promocell, Heidelberg) containing 75 μg/ml gentamycin, 50 ng/ml amphotericin B. After 25 μl of HEK 293 supernatant had been transferred, cells were incubated for 4 days and viable cell number was assessed by Alamar Blue reduction as above.
# TBK-1 mRNA = TBK-1 mRNA knock down by RNAi in HEK 293 cells, quantitative RT-PCR relative to G6PDH; type: cell-based, human; settings: 100 nM siRNA
# Experimental: Real-time PCR was carried out using a LightCycler (Roche Diagnostics). Reactions were set up in microcapillary tubes using the following final concentrations: 0.5 μM each of TBK-1 sense (TTGAAGAGGAGACAACAACAAGA) and TBK-1 antisense (CAT TCC ACC CAC CAC ATC T) primers, 3 mM MgCl2, 1×SYBR Greenmaster mix and 2 μl of cDNA.
# Cycling conditions for TBK-1 were as follows: denaturation (95° C. for 10 min), amplification and quantitation (95° C. for 10 s, 58° C. for 10 s and 72° C. for 13 s, with a single fluorescence measurement at the end of the 72° C. for 13 s segment) repeated 45 times. A melting curve program (55-95° C. with a heating rate of 0.1° C./s and continuous fluorescence measurement) and a cooling step to 40° C. followed.
# (§1) For relative quantification the procedure was repeated for G6PDH mRNA as reference gene. Data were analyzed using LightCycler analysis software.
# HEK 293 cells were transfected with double stranded RNAi oligos specific for TBK-1 using siPORT Amine according to the manufacture's protocol (Ambion Europe LTD, Cambridgeshire, United Kingdom). […] Under these conditions, increased expression of VEGF is observed and can be detected via VEGF ELISA (as shown in example 3).
# To determine the functionality of the RNAi molecule regarding inhibition of TBK-1 expression, relative expression levels of TBK-1 mRNAs were analysed by quantitative real-time PCR. […]
# VEGF mRNA = assay: Hypoxia (CoCl2)-induced VEGF mRNA expression in HEK 293 cells after TBK-1 RNAi, quantitative RT-PCR relative to G6PDH; type: cell-based, human; settings: 100 nM siRNA
# Experimental: Real-time PCR was carried out using a LightCycler (Roche Diagnostics). Reactions were set up in microcapillary tubes using the following final concentrations: 0.5 μM each of VEGF sense (CTTGCCTTGCTGCTCTACCT) and VEGF antisense (GATTCTGCCCTCCTCCTTCT) primers, 3 mM MgCl2, 1×SYBR Greenmaster mix and 2 μl of cDNA. For TBK-1 0.5 μM each of TBK-1 sense (TTGAAGAGGAGACAACAACAAGA) and TBK-1 antisense (CAT TCC ACC CAC CAC ATC T) primers were used.
# Cycling conditions for VEGF were as follows: denaturation (95° C. for 10 min), amplification and quantitation (95° C. for 10 s, 58° C. for 10 s and 72° C. for 13 s, with a single fluorescence measurement at the end of the 72° C. for 13 s segment) repeated 45 times. A melting curve program (55-95° C. with a heating rate of 0.1° C./s and continuous fluorescence measurement) and a cooling step to 40° C. followed. Cycling conditions for TBK-1 were identical.
# as §1
# HEK 293 cells were transfected with double stranded RNAi oligos specific for TBK-1 using siPORT Amine according to the manufacture's protocol (Ambion Europe LTD, Cambridgeshire, United Kingdom). […] Under these conditions, increased expression of VEGF is observed and can be detected via VEGF ELISA (as shown in example 3). […]
Substance,stimulation of NHDF proliferation [1],inhibition of expression of TBK-1 mRNA (TBK-1 mRNA),induction of VEGF mRNA under hypoxia (VEGF mRNA)
FGF-2,clearly responsive,–,–
"TBK-1 RNAi: double stranded RNAi oligo specific for TBK-1: sense GGA GAC AAC AAC AAG ACA Utt, antisense AUG UCU UGU UGU UGU CUC Ctc (sense GGAGACAACAACAAGACAU; antisense AUGUCUUGUUGUUGUCUCCC; listed as RNA, chemistry not given here)",–,> 85%,significantly reduces
